Results from patent publication US7754896B2, “Indol-alanine derivatives as selective S1P4-agonists” (Novartis AG, priority 2004, dated 2010).

Target: T1, S1P5 (Homo sapiens, UniProt Q9H228)
T1 construct: expressed in transfected cells
Experiment: Calcium mobilization assay, CHO cells expressing S1P5
Type: cell-based
Excerpt: The human S1P5 (GI: 30171332 or GenBank™ accession number AY262689, TREMBL: Q9H228) is cloned by a PCR based method. Lung and spleen cDNA (marathon cDNA) is obtained from BD Biosciences Chlontech (BD Biosciences Chlontech, Palo Alto, Calif. 94303, USA); genomic DNA is isolated from HeLa cells using standard procedures. Following oligonucleotides are used for the PCR reaction: forward primer CACCATGGAGTCGGGGCTGCTGCG (−4 to 20, GenBank™ accession number AY262689) and reverse primer 5′-TCAGTCTGCAGCCGGTTCTGATACCAGAGTC (1197 to 1131, AY262689), the initiation of the translation (ATG) and the stop codon are underlined. […] The amplified product of around 1100 bp is analyzed by standard agarose gel-electrophoresis. […]
CHO cells are plated in black Costar plate (96 or 384 well, 50,000 cells or 12,500 cells, respectively) in a MEM with FCS and cultured for 20-24 h at 37° C. in a CO2 incubator. […] After measuring the baseline for 40 sec, the agonist in HBSS is added and the fluorescence is measured at intervals of 2 sec for 3 to 5 min. […]

T1 sequence (Q9H228 whole entry): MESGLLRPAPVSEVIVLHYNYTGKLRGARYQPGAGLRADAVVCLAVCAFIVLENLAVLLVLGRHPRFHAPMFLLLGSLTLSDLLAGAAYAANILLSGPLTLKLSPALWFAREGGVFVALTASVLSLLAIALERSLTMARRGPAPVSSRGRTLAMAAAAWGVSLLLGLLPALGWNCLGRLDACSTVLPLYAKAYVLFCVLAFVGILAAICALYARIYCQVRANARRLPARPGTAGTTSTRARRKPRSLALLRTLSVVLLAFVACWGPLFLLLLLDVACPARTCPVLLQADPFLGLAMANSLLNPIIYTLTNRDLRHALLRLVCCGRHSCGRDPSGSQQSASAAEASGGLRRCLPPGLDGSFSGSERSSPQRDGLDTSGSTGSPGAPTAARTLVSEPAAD

Compound: NC(CNC(=O)c1cc2c(-c3ccccc3Cc3ccccc3)cccc2[nH]1)C(=O)O (stereo not shown) [Example 2]
- EC50: 2.4 µM
